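Five compound concentrations were applied to cells in 96-well plates for 48 hours; endpoints were derived by simple linear interpolation of the resulting dose-response curve. TGI is the concentration that stops growth completely.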
Tests used:
Test in all cases: NCI-60 cell line screen, 48 h
786-0 renal = system: 786-0 renal
A498 renal = system: A498 renal
A549 NSCLC = system: A549 NSCLC
ACHN renal = system: ACHN renal
BT-549 breast = system: BT-549 breast
CAKI-1 renal = system: CAKI-1 renal
CCRF-CEM leukemia = system: CCRF-CEM leukemia
COLO 205 colon = system: COLO 205 colon
DU-145 prostate = system: DU-145 prostate
EKVX NSCLC = system: EKVX NSCLC
HCC-2998 colon = system: HCC-2998 colon
HCT-116 colon = system: HCT-116 colon
HCT-15 colon = system: HCT-15 colon
HOP-62 NSCLC = system: HOP-62 NSCLC
HOP-92 NSCLC = system: HOP-92 NSCLC
HS 578T breast = system: HS 578T breast
HT29 colon = system: HT29 colon
IGROV1 ovarian = system: IGROV1 ovarian
K-562 leukemia = system: K-562 leukemia
KM12 colon = system: KM12 colon
LOX IMVI melanoma = system: LOX IMVI melanoma
M14 melanoma = system: M14 melanoma
MALME-3M melanoma = system: MALME-3M melanoma
MCF7 breast = system: MCF7 breast
MDA-MB-231 breast = system: MDA-MB-231 breast
MDA-MB-435 = system: MDA-MB-435
MDA-N = system: MDA-N
MOLT-4 leukemia = system: MOLT-4 leukemia
NCI-H226 lung = system: NCI-H226 lung
NCI-H23 lung = system: NCI-H23 lung
NCI-H460 lung = system: NCI-H460 lung
NCI-H522 lung = system: NCI-H522 lung
NCI/ADR-RES ovarian = system: NCI/ADR-RES ovarian
OVCAR-3 ovarian = system: OVCAR-3 ovarian
OVCAR-4 ovarian = system: OVCAR-4 ovarian
OVCAR-5 ovarian = system: OVCAR-5 ovarian
OVCAR-8 ovarian = system: OVCAR-8 ovarian
PC-3 prostate = system: PC-3 prostate
RPMI-8226 leukemia = system: RPMI-8226 leukemia
RXF 393 renal = system: RXF 393 renal
SF-268 CNS = system: SF-268 CNS
SF-295 CNS = system: SF-295 CNS
SF-539 CNS = system: SF-539 CNS
SK-MEL-2 melanoma = system: SK-MEL-2 melanoma
SK-MEL-28 melanoma = system: SK-MEL-28 melanoma
SK-MEL-5 melanoma = system: SK-MEL-5 melanoma
SK-OV-3 ovarian = system: SK-OV-3 ovarian
SN12C renal = system: SN12C renal
SNB-19 CNS = system: SNB-19 CNS
SNB-75 CNS = system: SNB-75 CNS
SR leukemia = system: SR leukemia
SW-620 colon = system: SW-620 colon
T-47D breast = system: T-47D breast
TK-10 renal = system: TK-10 renal
U251 CNS = system: U251 CNS
UACC-257 melanoma = system: UACC-257 melanoma
UACC-62 melanoma = system: UACC-62 melanoma
UO-31 renal = system: UO-31 renal
HL-60(TB) leukemia = system: HL-60(TB) leukemia

## C=C1C(=O)O[C@H]2C[C@@]3(C)[C@H](O)CCC(=C)[C@@H]3[C@@H](OC(C)=O)[C@H]12
786-0 renal
  TGI: 32 µM
A498 renal
  TGI: 44.2 µM
A549 NSCLC
  TGI: 33.7 µM
ACHN renal
  TGI: 12.9 µM
BT-549 breast
  TGI: 25 µM
CAKI-1 renal
  TGI: 3.23 µM
CCRF-CEM leukemia
  TGI: 2.96 µM
COLO 205 colon
  TGI: 7.06 µM
DU-145 prostate
  TGI: 26.6 µM
EKVX NSCLC
  TGI: 38.1 µM
HCC-2998 colon
  TGI: 30.3 µM
HCT-116 colon
  TGI: 22.2 µM
HCT-15 colon
  TGI: 7.93 µM
HOP-62 NSCLC
  TGI: 32.8 µM
HOP-92 NSCLC
  TGI: 16 µM
HS 578T breast
  TGI: 38.5 µM
HT29 colon
  TGI: 25.9 µM
IGROV1 ovarian
  TGI: 30 µM
K-562 leukemia
  TGI: > 23.3 µM
KM12 colon
  TGI: 36 µM
LOX IMVI melanoma
  TGI: 19.7 µM
M14 melanoma
  TGI: 25.2 µM
MALME-3M melanoma
  TGI: 3.52 µM
MCF7 breast
  TGI: 9.84 µM
MDA-MB-231 breast
  TGI: 36.6 µM
MDA-MB-435
  TGI: 44.4 µM
MDA-N
  TGI: 20.6 µM
MOLT-4 leukemia
  TGI: > 31 µM
NCI-H226 lung
  TGI: 49.2 µM
NCI-H23 lung
  TGI: 27.6 µM
NCI-H460 lung
  TGI: 25.7 µM
NCI-H522 lung
  TGI: 4.13 µM
NCI/ADR-RES ovarian
  TGI: 76.8 µM
OVCAR-3 ovarian
  TGI: 26.9 µM
OVCAR-4 ovarian
  TGI: 20.8 µM
OVCAR-5 ovarian
  TGI: 25.3 µM
OVCAR-8 ovarian
  TGI: 50.4 µM
PC-3 prostate
  TGI: 37.3 µM
RPMI-8226 leukemia
  TGI: 68.7 µM
RXF 393 renal
  TGI: 14.7 µM
SF-268 CNS
  TGI: > 52.2 µM
SF-295 CNS
  TGI: 40.5 µM
SF-539 CNS
  TGI: 10.2 µM
SK-MEL-2 melanoma
  TGI: 37.6 µM
SK-MEL-28 melanoma
  TGI: > 65.9 µM
SK-MEL-5 melanoma
  TGI: 26.4 µM
SK-OV-3 ovarian
  TGI: > 83.6 µM
SN12C renal
  TGI: 29.5 µM
SNB-19 CNS
  TGI: 31.5 µM
SNB-75 CNS
  TGI: 29.2 µM
SR leukemia
  TGI: > 20 µM
SW-620 colon
  TGI: > 100 µM
T-47D breast
  TGI: 29.5 µM
TK-10 renal
  TGI: 24.1 µM
U251 CNS
  TGI: > 71.3 µM
UACC-257 melanoma
  TGI: 34.8 µM
UACC-62 melanoma
  TGI: 37.3 µM
UO-31 renal
  TGI: 27 µM

## O=C1NC2(CN3CCC2CC3)C(=O)N1CN(Cc1ccccc1)c1ccccc1 (centres undefined)
786-0 renal
  TGI: > 100 µM
A498 renal
  TGI: > 100 µM
A549 NSCLC
  TGI: > 100 µM
ACHN renal
  TGI: > 100 µM
BT-549 breast
  TGI: > 100 µM
CAKI-1 renal
  TGI: > 100 µM
COLO 205 colon
  TGI: > 100 µM
DU-145 prostate
  TGI: > 100 µM
EKVX NSCLC
  TGI: > 100 µM
HCC-2998 colon
  TGI: > 100 µM
HCT-116 colon
  TGI: > 100 µM
HCT-15 colon
  TGI: > 100 µM
HL-60(TB) leukemia
  TGI: 44.7 µM
HOP-62 NSCLC
  TGI: > 100 µM
HOP-92 NSCLC
  TGI: > 100 µM
HS 578T breast
  TGI: > 100 µM
HT29 colon
  TGI: > 100 µM
IGROV1 ovarian
  TGI: > 100 µM
KM12 colon
  TGI: > 100 µM
LOX IMVI melanoma
  TGI: > 100 µM
M14 melanoma
  TGI: > 100 µM
MCF7 breast
  TGI: > 100 µM
MDA-MB-231 breast
  TGI: > 100 µM
MDA-MB-435
  TGI: > 100 µM
MDA-N
  TGI: > 100 µM
MOLT-4 leukemia
  TGI: > 100 µM
NCI-H226 lung
  TGI: > 100 µM
NCI-H23 lung
  TGI: > 100 µM
NCI-H460 lung
  TGI: > 100 µM
NCI-H522 lung
  TGI: > 100 µM
NCI/ADR-RES ovarian
  TGI: > 100 µM
OVCAR-3 ovarian
  TGI: > 100 µM
OVCAR-4 ovarian
  TGI: > 100 µM
OVCAR-5 ovarian
  TGI: > 100 µM
OVCAR-8 ovarian
  TGI: > 100 µM
PC-3 prostate
  TGI: > 100 µM
RPMI-8226 leukemia
  TGI: > 100 µM
RXF 393 renal
  TGI: > 100 µM
SF-268 CNS
  TGI: > 100 µM
SF-295 CNS
  TGI: > 100 µM
SF-539 CNS
  TGI: > 100 µM
SK-MEL-2 melanoma
  TGI: > 100 µM
SK-MEL-28 melanoma
  TGI: > 100 µM
SK-MEL-5 melanoma
  TGI: > 100 µM
SK-OV-3 ovarian
  TGI: > 100 µM
SN12C renal
  TGI: > 100 µM
SNB-19 CNS
  TGI: > 100 µM
SNB-75 CNS
  TGI: > 100 µM
SR leukemia
  TGI: 63.2 µM
SW-620 colon
  TGI: > 100 µM
T-47D breast
  TGI: > 100 µM
TK-10 renal
  TGI: > 100 µM
U251 CNS
  TGI: > 100 µM
UACC-257 melanoma
  TGI: > 100 µM
UACC-62 melanoma
  TGI: > 100 µM
UO-31 renal
  TGI: > 100 µM

Reference: PubChem BioAssay (NCI)
